Experimental data: patent publication US11214803B2, “Modulators of YAP1 expression” (Ionis Pharmaceuticals, Inc., priority 2019, dated 2022)
Strand notation (5' to 3'): a small letter for the sugar, then the base; units joined by * are phosphorothioate-linked, units joined directly phosphodiester-linked; [ ] holds rarer units or linkages, { } end groups; capitals alone tell only the bases. k = constrained ethyl (cEt); [5mC] = 5-methylcytosine; d = 2'-deoxy (DNA)

Tested on: Yap1 mRNA
Assay: Antisense inhibition of human Yap1 in A-431 cells by cEt gapmers, single dose (Example 3, RTS36584)
Assay type: cell-based
Conditions: Table 8; A-431 cells, 5,000 cells per well, free uptake, 2,000 nM, approximately 48 hours; RTS36584; normalized to RIBOGREEN; Yap1 mRNA relative to untreated control cells
Method in brief: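 Values are % untreated control: Yap1 mRNA by quantitative RT-PCR (RTS36584), normalized to total RNA by RiboGreen. Before RNA isolation, 5,000 A-431 cells per well were exposed ~48 h to 2,000 nM 16-mer cEt gapmer, delivered without transfection reagent.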

| Substance | YAP1 (% UTC) |
| --- | --- |
| 958409 (antisense kT*kT*kA*d[5mC]*d[5mC]*dA*dA*dA*dA*d[5mC]*dG*dA*dG*kG*kG*kT) [Compound 958409] | 99 |
| 958398 (antisense kG*k[5mC]*kA*dG*dG*d[5mC]*dT*dA*dT*dT*dA*dA*dG*k[5mC]*kT*kG) [Compound 958398] | 76 |
| 958357 (antisense k[5mC]*kG*kG*d[5mC]*dT*dT*dG*dA*dA*dG*dA*dA*dG*kG*kA*kG) [Compound 958357] | 12 |

Same assay, conditions: Table 9; A-431 cells, 5,000 cells per well, free uptake, 2,000 nM, approximately 48 hours; RTS36584; normalized to RIBOGREEN; Yap1 mRNA relative to untreated control cells

| Substance | YAP1 (% UTC) |
| --- | --- |
| 958801 (antisense k[5mC]*kG*k[5mC]*dT*dA*dG*d[5mC]*dA*d[5mC]*dG*d[5mC]*dG*d[5mC]*kG*k[5mC]*kT) [Compound 958801] | 131 |
| 958561 (kA*k[5mC]*kA*d[5mC]*dA*dG*dA*dG*dG*dT*dG*d[5mC]*dT*kA*kG*k[5mC]; antisense) [Compound 958561] | 48 |
| 958741 (antisense kG*kT*kT*dA*d[5mC]*dT*dG*d[5mC]*dA*dA*d[5mC]*dT*dG*k[5mC]*k[5mC]*k[5mC]) [Compound 958741] | 14 |
| 958751 (antisense kT*k[5mC]*kA*dA*dT*dG*d[5mC]*dA*dG*dG*dA*dT*dT*k[5mC]*k[5mC]*kA) [Compound 958751] | 30 |
| 958641 (antisense kA*kG*k[5mC]*dT*dA*d[5mC]*dA*dG*dA*dG*d[5mC]*dT*dT*kA*kA*k[5mC]) [Compound 958641] | 102 |
| 958586 (kG*kG*k[5mC]*dA*dG*d[5mC]*dA*d[5mC]*dG*dG*dT*dG*dT*kA*kA*kG; antisense) [Compound 958586] | 78 |
| 958461 (antisense kG*k[5mC]*k[5mC]*dG*dA*dA*dG*d[5mC]*dA*dG*dT*dT*d[5mC]*kT*kT*kG) [Compound 958461] | 79 |
| 958571 (k[5mC]*kA*kA*d[5mC]*dA*dA*d[5mC]*dA*dT*dG*d[5mC]*dT*dA*kT*kG*kT; antisense) [Compound 958571] | 43 |

Same assay, conditions: Table 10; A-431 cells, 5,000 cells per well, free uptake, 2,000 nM oligonucleotide, approx. 48 hours; primer probe set RTS36584; Yap1 mRNA normalized to RIBOGREEN, percent of untreated control

| Substance | YAP1 (% UTC) |
| --- | --- |
| 958622 (antisense kG*kA*kT*dA*dT*dT*d[5mC]*d[5mC]*dG*d[5mC]*dA*dT*dT*kG*k[5mC]*k[5mC]) [Compound 958622] | 3 |
| 958482 (antisense kT*k[5mC]*kT*dG*dT*dA*dT*dT*dA*dG*d[5mC]*d[5mC]*dT*kG*kA*kA) [Compound 958482] | 10 |
| 958687 (antisense kA*k[5mC]*kA*d[5mC]*dT*dA*dT*dG*dT*dG*dT*dT*d[5mC]*kT*kG*k[5mC]) [Compound 958687] | 57 |
| 958592 (k[5mC]*kG*kT*dA*dA*dG*dA*dT*d[5mC]*dA*dA*dA*dG*k[5mC]*kA*k[5mC]; antisense) [Compound 958592] | 12 |
| 958597 (k[5mC]*k[5mC]*k[5mC]*dA*dA*dT*dA*d[5mC]*dA*dA*d[5mC]*d[5mC]*dA*kA*kG*kA; antisense) [Compound 958597] | 6 |
| 958487 (kT*k[5mC]*k[5mC]*dA*dA*dA*d[5mC]*dA*dG*dG*d[5mC]*dT*d[5mC]*kA*k[5mC]*kT; antisense) [Compound 958487] | 10 |

Same assay, conditions: Table 11; A-431 cells, 5,000 cells per well, free uptake, 2,000 nM oligonucleotide, approx. 48 hours; primer probe set RTS36584; Yap1 mRNA normalized to RIBOGREEN, percent of untreated control

| Substance | YAP1 (% UTC) |
| --- | --- |
| 958713 (antisense kT*kG*k[5mC]*dT*dA*dG*dA*dG*dG*d[5mC]*dT*dG*dT*kT*k[5mC]*k[5mC]) [Compound 958713] | 55 |
| 958548 (kG*kA*k[5mC]*dA*d[5mC]*dA*dT*dA*d[5mC]*dT*d[5mC]*dT*dA*kG*kT*kT; antisense) [Compound 958548] | 21 |
| 958773 (antisense kA*kG*k[5mC]*dT*dG*dG*dT*dA*dG*dG*dG*d[5mC]*dA*kA*kG*kA) [Compound 958773] | 43 |
| 958593 (kG*kG*kT*d[5mC]*dA*dG*dT*dA*d[5mC]*dA*dG*dA*dG*kG*kG*k[5mC]; antisense) [Compound 958593] | 7 |

Same assay, conditions: Table 12; A-431 cells, 5,000 cells per well, free uptake, 2,000 nM modified oligonucleotide, approx. 48 hours; RTS36584; normalized to RIBOGREEN; Yap1 mRNA relative to untreated control cells

| Substance | YAP1 (% UTC) |
| --- | --- |
| 958794 (antisense kT*kT*k[5mC]*d[5mC]*dG*d[5mC]*dA*dT*dT*dG*d[5mC]*d[5mC]*dT*kA*kA*kG) [Compound 958794] | 14 |
| 958494 (kT*kA*kG*d[5mC]*dA*d[5mC]*dT*dA*dG*dG*dA*dG*dG*kA*kA*kA; antisense) [Compound 958494] | 28 |
| 958674 (kA*kA*kG*dA*dA*d[5mC]*dT*dT*dA*dG*dT*dT*d[5mC]*k[5mC]*k[5mC]*kT; antisense) [Compound 958674] | 25 |
| 958624 (antisense kG*kG*kG*dA*dT*dT*dG*dA*dT*dA*dT*dT*d[5mC]*k[5mC]*kG*k[5mC]) [Compound 958624] | 74 |
| 958534 (kT*kT*k[5mC]*dA*dG*d[5mC]*dA*dT*dA*dG*dA*dA*dG*kT*kA*kG; antisense) [Compound 958534] | 3 |

Same assay, conditions: Table 13; A-431 cells, 5,000 cells per well, free uptake, 2,000 nM modified oligonucleotide, approx. 48 hours; RTS36584; normalized to RIBOGREEN; Yap1 mRNA relative to untreated control cells

| Substance | YAP1 (% UTC) |
| --- | --- |
| 958555 (kG*k[5mC]*kT*dT*dA*dT*dA*dT*dT*dG*dA*dA*dG*kA*kG*kT; antisense) [Compound 958555] | 4 |
| 958540 (kA*kT*kT*d[5mC]*dT*dA*dT*d[5mC]*d[5mC]*dA*dG*dG*dG*kT*k[5mC]*kA; antisense) [Compound 958540] | 8 |
| 958455 (antisense kA*kG*kA*dG*dG*dA*dA*dT*dG*dA*dG*d[5mC]*dT*k[5mC]*kG*kA) [Compound 958455] | 43 |
| 958465 (antisense kG*kG*k[5mC]*dT*dT*d[5mC]*dA*dA*dG*dG*dT*dA*dG*kT*k[5mC]*kT) [Compound 958465] | 84 |

Same assay, conditions: Table 26; Yap1 mRNA by 3-10-3 cEt gapmers targeting SEQ ID NO.: 1, and 2; percent of untreated control

| Substance | YAP1 (% UTC) |
| --- | --- |
| 1074220 (antisense kA*kA*kT*dG*dA*dG*d[5mC]*dT*d[5mC]*dG*dA*dA*d[5mC]*kA*kT*kG) [compound 1074220] | 22 |
| 1075500 (kT*kA*kA*dA*dT*dT*dA*dA*dG*d[5mC]*d[5mC]*dA*dA*k[5mC]*kA*k[5mC]; antisense) [compound 1075500] | 26 |
| 1074316 (antisense kG*kG*kA*dT*dT*dG*dA*dT*dA*dT*dT*d[5mC]*d[5mC]*kG*k[5mC]*kA) [compound 1074316] | 33 |
| 1074284 (antisense k[5mC]*kA*kA*dA*dA*d[5mC]*dG*dA*dG*dG*dG*dT*d[5mC]*kA*kA*kG) [compound 1074284] | 21 |

Same assay, conditions: Table 27; Yap1 mRNA by 3-10-3 cEt gapmers targeting SEQ ID NO.: 1, and 2; percent of untreated control

| Substance | YAP1 (% UTC) |
| --- | --- |
| 1074573 (DNA kA*kT*kT*dA*dT*dG*dA*dA*d[5mC]*d[5mC]*dT*dA*d[5mC]*kT*k[5mC]*kA) [compound 1074573] | 14 |
| 1074253 (antisense kT*k[5mC]*kT*dG*dG*dG*dA*d[5mC]*dA*dG*d[5mC]*dA*dT*kG*kG*k[5mC]) [compound 1074253] | 11 |
| 1075213 (kA*k[5mC]*kA*dA*dT*dA*dA*dA*dG*dG*dG*dT*d[5mC]*k[5mC]*kT*kA; antisense) [compound 1075213] | 33 |

Same assay, conditions: Table 28; Yap1 mRNA as percent of untreated control; 3-10-3 cEt gapmers targeting SEQ ID NO.: 1, and 2

| Substance | YAP1 (% UTC) |
| --- | --- |
| 1075470 (antisense kG*k[5mC]*k[5mC]*dA*dA*dT*dA*dA*dG*dT*dT*dA*dT*k[5mC]*kA*kA) [compound 1075470] | 50 |
| 1075758 (kG*kT*kA*dA*dT*dT*dT*dA*dA*dT*dA*dG*dA*k[5mC]*kT*kA; antisense) [compound 1075758] | 73 |
| 1075726 (kA*kG*kT*dT*dA*dT*d[5mC]*d[5mC]*dT*dA*dT*d[5mC]*dT*kG*kT*k[5mC]; antisense) [compound 1075726] | 14 |

Same assay, conditions: Table 29; Yap1 mRNA as percent of untreated control; 3-10-3 cEt gapmers targeting SEQ ID NO.: 1, and 2

| Substance | YAP1 (% UTC) |
| --- | --- |
| 1074863 (kA*kT*kA*dT*dG*dA*dG*d[5mC]*dA*dT*dG*d[5mC]*dT*k[5mC]*kT*kT; antisense) [compound 1074863] | 41 |
| 1074127 (k[5mC]*k[5mC]*kA*d[5mC]*dT*dG*dG*dT*d[5mC]*dT*dG*dG*d[5mC]*kG*kG*k[5mC]; antisense) [compound 1074127] | 57 |
| 1076047 (kA*k[5mC]*kT*dT*dA*dA*dA*dT*dG*dG*dT*dG*d[5mC]*kA*kA*kT; antisense) [compound 1076047] | 34 |
| 1074991 (antisense kA*kA*kT*dT*dA*dT*dT*dT*dG*dA*d[5mC]*dT*d[5mC]*k[5mC]*k[5mC]*k[5mC]) [compound 1074991] | 60 |

Same assay, conditions: Table 34; Yap1 mRNA as percent of untreated control; 3-10-3 cEt gapmers targeting SEQ ID NO: 1 and 2; single dose

| Substance | YAP1 (% UTC) |
| --- | --- |
| 1075220 (kA*kA*kT*dT*dT*dT*dA*dA*d[5mC]*dT*dG*dT*dG*kA*k[5mC]*k[5mC]; antisense) [compound 1075220] | 24 |
| 1075828 (kT*kT*kA*dG*dA*dA*dT*dA*dG*dT*dT*d[5mC]*dT*kA*k[5mC]*k[5mC]; antisense) [compound 1075828] | 59 |

Same assay, conditions: Table 35; Yap1 mRNA as percent of untreated control; 3-10-3 cEt gapmers targeting SEQ ID NO: 1 and 2; single dose

| Substance | YAP1 (% UTC) |
| --- | --- |
| 1076213 (kT*k[5mC]*kT*d[5mC]*dA*dA*dG*dG*dA*dA*dT*dT*dG*k[5mC]*k[5mC]*kT; antisense) [compound 1076213] | 27 |
